# Laboratory results taken from ChEMBL document CHEMBL1201862, “PubChem BioAssay data set” (2004).
# Calls of active or inactive are those of the source.
# Tests used:
# [1] = molecular target: Muscarinic acetylcholine receptor M1 (Rattus norvegicus, UniProt P08482); test: rat M1 positive allosteric modulator potency, dose response, cell-based, calcium mobilization, CHO-K1, ACh EC20 (AID 2425); format: functional
# [2] = molecular target: T1, Corticotropin-releasing factor receptor 2/Corticotropin-releasing factor-binding protein (Homo sapiens, UniProt P24387+Q13324); test: activators of CRF receptor 2 with binding protein – uHTS hits, confirmation (AID 602473); format: functional; conditions: read-out: EC50_Mean
# T1 sequence (Q13324 whole entry): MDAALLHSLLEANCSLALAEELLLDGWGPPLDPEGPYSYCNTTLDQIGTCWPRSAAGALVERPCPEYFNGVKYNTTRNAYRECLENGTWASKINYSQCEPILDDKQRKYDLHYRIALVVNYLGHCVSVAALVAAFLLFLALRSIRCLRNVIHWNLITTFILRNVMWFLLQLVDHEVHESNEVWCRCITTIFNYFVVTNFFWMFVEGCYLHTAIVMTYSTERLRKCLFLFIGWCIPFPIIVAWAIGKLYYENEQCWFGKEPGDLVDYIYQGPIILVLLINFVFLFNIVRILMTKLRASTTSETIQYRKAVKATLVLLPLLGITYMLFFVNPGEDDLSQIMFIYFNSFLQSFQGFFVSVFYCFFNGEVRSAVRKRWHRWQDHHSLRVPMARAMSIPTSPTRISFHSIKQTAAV
# T1 sequence (P24387 whole entry): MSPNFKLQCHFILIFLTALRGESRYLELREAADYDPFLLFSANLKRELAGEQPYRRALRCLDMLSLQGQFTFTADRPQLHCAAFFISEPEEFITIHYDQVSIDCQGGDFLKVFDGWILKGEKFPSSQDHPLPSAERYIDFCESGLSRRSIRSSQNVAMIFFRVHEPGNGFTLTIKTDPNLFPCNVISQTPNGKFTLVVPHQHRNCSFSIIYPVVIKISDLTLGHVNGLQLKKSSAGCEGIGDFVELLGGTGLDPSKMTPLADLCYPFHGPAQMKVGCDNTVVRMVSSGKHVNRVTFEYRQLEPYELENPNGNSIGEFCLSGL
# Mucolipin-3 [3] = molecular target: T2, Mucolipin-3 (Homo sapiens, UniProt Q8TDD5); test: Dose response cell-based high-throughput screening assay for agonists of the transient receptor potential channel ML3 (TRPML3). [Related pubchem assays: 1526, 1424, 1448 ]; format: functional
# T2 sequence (Q8TDD5 whole entry): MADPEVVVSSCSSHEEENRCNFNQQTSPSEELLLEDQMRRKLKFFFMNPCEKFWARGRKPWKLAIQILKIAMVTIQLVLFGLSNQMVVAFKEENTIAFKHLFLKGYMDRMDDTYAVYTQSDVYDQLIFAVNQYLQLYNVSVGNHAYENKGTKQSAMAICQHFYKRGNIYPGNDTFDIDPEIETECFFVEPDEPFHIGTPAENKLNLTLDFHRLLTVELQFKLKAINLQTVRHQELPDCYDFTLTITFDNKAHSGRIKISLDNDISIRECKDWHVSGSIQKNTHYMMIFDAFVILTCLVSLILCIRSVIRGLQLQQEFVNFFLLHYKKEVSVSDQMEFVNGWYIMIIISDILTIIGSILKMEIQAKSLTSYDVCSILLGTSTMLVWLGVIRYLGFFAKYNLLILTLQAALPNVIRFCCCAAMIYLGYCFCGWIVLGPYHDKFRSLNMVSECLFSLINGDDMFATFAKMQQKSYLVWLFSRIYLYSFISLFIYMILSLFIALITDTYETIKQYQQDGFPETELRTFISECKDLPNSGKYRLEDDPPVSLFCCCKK
# Ion channel NompC [4] = molecular target: T3, Ion channel NompC (Danio rerio, UniProt Q7T1G6); test: Late stage counterscreen for the probe development effort to identify selective agonists of the Transient Receptor Potential Channels 3 (TRPML3): fluorescence-based cell-based dose response assay for TRPN1 agonists.; format: functional
# T3 sequence (Q7T1G6 whole entry): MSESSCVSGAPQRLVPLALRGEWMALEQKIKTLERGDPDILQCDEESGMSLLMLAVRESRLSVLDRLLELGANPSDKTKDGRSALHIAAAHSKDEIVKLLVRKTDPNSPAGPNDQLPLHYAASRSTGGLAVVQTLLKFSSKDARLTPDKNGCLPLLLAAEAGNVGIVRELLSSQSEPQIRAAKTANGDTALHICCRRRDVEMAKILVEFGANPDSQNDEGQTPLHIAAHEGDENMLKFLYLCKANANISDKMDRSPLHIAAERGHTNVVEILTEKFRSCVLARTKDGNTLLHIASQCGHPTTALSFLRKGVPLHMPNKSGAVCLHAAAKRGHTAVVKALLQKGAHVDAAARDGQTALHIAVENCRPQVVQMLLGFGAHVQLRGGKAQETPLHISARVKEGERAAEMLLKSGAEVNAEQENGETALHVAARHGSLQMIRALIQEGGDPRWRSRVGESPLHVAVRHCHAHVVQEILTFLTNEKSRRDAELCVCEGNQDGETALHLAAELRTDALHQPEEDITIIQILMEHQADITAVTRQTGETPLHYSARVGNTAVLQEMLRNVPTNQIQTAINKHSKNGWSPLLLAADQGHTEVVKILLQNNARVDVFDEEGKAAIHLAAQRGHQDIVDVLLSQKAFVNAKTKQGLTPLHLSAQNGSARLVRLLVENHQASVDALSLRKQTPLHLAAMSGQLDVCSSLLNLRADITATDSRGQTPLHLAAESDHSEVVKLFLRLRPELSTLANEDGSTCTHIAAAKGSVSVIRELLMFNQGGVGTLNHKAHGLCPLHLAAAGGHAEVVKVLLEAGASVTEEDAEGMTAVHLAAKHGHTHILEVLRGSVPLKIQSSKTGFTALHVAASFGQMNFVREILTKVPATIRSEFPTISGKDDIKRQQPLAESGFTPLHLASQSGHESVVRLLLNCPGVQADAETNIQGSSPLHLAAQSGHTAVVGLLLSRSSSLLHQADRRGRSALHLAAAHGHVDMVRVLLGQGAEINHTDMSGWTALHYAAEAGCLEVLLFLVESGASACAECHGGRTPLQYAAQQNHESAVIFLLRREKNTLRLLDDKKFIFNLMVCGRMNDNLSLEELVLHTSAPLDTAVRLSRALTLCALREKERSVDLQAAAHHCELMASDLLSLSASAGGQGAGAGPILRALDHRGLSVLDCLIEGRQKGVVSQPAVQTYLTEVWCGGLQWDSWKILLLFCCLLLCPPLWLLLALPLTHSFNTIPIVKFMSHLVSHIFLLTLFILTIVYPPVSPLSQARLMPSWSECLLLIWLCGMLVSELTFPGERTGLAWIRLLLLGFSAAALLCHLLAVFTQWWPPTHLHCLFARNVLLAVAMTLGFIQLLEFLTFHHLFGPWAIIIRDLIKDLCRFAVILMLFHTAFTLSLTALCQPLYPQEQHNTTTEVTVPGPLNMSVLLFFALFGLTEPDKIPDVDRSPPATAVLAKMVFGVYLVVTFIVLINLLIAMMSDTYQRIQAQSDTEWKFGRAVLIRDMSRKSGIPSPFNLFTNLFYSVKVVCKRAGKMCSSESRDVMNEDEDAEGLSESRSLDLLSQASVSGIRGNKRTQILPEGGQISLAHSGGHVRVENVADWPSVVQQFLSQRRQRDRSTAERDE
# Ion channel NompC [5] = molecular target: T3, Ion channel NompC; test: Fluorescence counterscreen assay for TRPML3 agonists: dose response cell-based high-throughput screening assay to identify agonists of the transient receptor potential channel N1 (TRPN1). [Related pubchem assays: 1526, 1424, 1448 ]; format: functional
# Mucolipin-3 [6] = molecular target: T2, Mucolipin-3; test: TRPML3 agonist potency, dose response, cell-based, calcium fluorescence (AID 2510); format: functional
# NADPH oxidase 1 = molecular target: T4, NADPH oxidase 1 (Homo sapiens, UniProt Q9Y5S8); test: Late-stage luminescence-based cell-based dose response assay to identify inhibitors of NADPH oxidase 1 (NOX1): Synthesized analogs 2.; format: functional
# T4 sequence (Q9Y5S8 whole entry): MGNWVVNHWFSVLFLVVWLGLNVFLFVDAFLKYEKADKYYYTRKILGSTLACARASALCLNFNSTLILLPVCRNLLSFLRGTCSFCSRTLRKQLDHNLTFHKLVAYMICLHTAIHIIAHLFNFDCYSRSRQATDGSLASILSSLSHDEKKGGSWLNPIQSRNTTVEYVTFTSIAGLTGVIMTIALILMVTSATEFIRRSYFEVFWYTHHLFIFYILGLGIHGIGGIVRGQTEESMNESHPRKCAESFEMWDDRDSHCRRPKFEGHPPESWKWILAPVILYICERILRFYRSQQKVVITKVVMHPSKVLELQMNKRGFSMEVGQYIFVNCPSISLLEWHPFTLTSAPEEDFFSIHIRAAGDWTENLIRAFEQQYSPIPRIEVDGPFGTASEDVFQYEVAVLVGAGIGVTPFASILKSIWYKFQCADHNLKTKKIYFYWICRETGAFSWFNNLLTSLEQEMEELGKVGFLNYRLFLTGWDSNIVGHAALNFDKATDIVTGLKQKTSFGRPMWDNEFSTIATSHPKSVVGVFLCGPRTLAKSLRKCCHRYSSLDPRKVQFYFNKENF
# Beta Lactamase = Beta Lactamase (Pseudomonas aeruginosa, UniProt Q932Y6); test: beta-lactamase reporter inhibitor potency, dose response, artefact control for TLR9-MyD88 binding inhibitor project, BLA reporter cells, FRET fluorescence (AID 588341); format: cell-based;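 further: cell based assay in CHO-K1 cells stably expressing beta-lactamase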
# Beta Lactamase, sequence (Q932Y6 whole entry): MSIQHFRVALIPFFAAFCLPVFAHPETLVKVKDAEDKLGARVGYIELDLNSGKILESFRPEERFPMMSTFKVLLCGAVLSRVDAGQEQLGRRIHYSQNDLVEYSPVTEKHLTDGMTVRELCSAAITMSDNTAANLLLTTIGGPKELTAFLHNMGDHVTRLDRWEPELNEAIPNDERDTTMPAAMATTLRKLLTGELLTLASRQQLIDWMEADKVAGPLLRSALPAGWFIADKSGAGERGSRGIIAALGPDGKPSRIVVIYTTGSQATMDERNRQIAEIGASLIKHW
# [7] = Luminescence Cell-Based Dose Confirmation HTS to Identify Inhibitors of Platelet Dense Granule Release. [Related pubchem assays: 1663 (Primary HTS), 1678 (Summary of Project)]; format: functional
# CHO = test: cytotoxicity in TLR9-MyD88 CHO cells, dose response, cytotoxicity control for TLR9-MyD88 binding inhibitor project, cell-based, luminescence (AID 588339); format: functional, hamster; conditions: Cricetulus griseus;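 further: CHO cells stably coexpressing TLR9 and MyD88 fusions from primary screen; compound exposure lasted 48 hours before viability readout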
# [8] = Fluorescence Cell-Based Dose Response to Identify Inhibitors of Thrombin Receptor-Activating Peptide SFLLRN-Mediated P-Selectin Induction on Platelets. [Related pubchem assays: 1663 (Primary HTS), 1889 (retest at dose ), 1891 (counterscreen), 1678 (Project Summary)]; format: functional
# [9] = molecular target: Sphingosine 1-phosphate receptor 1 (Homo sapiens, UniProt P21453); format: functional;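 further: Tango beta-arrestin reporter U2OS cells stimulated with S1P near its EC80; inhibitor potency meaning antagonism of receptor activation by the natural agonist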
# Sphingosine 1-phosphate receptor 1, sequence (P21453 whole entry): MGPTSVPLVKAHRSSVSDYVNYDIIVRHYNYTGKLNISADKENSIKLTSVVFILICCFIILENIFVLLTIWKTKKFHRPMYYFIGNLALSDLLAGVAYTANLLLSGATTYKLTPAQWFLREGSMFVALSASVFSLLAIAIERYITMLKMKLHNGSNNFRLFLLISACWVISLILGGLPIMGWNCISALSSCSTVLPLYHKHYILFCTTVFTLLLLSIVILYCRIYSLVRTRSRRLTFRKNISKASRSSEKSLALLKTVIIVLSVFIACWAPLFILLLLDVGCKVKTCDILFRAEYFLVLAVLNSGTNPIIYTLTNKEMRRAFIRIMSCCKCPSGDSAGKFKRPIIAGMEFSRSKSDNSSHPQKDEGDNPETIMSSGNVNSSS
# A-375 [10] = test: MITF: Counter assay: A375 proliferation Measured in Cell-Based System Using Plate Reader - 2084-03_Inhibitor_Dose_DryPowder_Activity. [Related pubchem assays (depositor defined):AID488944]; format: functional; conditions: Homo sapiens
# Protein RecA = molecular target: T5, Protein RecA (Mycobacterium tuberculosis, UniProt P9WHJ3); test: Fluorescence Cell-Free Homogeneous Dose Retest to Identify Inhibitors of RecA-Intein Splicing Activity. [Related pubchem assays (depositor defined):AID2097, AID2223, AID489010, AID492950]; format: functional
# T5 sequence (P9WHJ3 whole entry): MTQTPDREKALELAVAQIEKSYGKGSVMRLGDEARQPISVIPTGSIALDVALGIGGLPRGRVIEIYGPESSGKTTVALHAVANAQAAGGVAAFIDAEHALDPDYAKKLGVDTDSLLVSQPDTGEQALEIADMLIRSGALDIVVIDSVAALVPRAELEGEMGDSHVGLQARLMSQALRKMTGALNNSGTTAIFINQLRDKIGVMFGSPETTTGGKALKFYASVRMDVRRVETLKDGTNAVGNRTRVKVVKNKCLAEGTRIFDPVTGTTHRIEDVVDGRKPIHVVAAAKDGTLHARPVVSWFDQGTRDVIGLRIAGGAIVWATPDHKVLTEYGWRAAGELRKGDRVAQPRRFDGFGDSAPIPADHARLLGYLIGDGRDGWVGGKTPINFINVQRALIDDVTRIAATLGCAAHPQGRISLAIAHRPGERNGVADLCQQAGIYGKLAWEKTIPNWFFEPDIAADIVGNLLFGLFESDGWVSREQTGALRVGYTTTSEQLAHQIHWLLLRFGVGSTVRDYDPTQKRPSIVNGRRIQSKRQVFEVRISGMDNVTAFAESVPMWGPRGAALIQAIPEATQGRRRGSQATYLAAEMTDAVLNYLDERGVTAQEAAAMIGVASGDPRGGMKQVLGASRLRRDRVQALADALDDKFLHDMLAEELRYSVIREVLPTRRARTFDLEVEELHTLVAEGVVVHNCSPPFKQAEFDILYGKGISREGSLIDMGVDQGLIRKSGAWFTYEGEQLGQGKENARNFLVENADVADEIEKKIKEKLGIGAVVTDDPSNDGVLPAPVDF
# Paired box protein Pax-8 = Paired box protein Pax-8 (Homo sapiens, UniProt Q06710); test: inhibitors of PAX8-driven TPO luciferase reporter, dose response, RMG-I cells, cherry-pick (AID 687027); format: functional, cell-based;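 further: luciferase reporter driven by Pax8 target thyroperoxidase promoter measured by SteadyGlo luminescence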
# Paired box protein Pax-8, sequence (Q06710 whole entry): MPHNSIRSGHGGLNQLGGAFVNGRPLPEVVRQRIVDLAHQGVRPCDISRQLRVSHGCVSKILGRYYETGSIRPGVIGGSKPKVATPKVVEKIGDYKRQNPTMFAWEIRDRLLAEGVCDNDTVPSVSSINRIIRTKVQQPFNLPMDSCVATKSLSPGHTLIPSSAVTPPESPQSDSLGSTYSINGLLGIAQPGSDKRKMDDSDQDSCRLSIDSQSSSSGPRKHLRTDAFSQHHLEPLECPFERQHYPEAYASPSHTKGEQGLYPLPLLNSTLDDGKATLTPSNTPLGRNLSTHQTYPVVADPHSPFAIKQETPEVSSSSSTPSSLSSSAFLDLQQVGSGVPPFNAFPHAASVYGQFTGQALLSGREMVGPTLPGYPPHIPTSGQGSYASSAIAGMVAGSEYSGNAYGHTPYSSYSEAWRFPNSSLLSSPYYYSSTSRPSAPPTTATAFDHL
# [11] = molecular target: T6, Replicative DNA helicase DnaB (Mycobacterium tuberculosis, UniProt P9WMR3); test: DnaB intein splicing inhibitors, dose response, biochemical, cell-free fluorescence (AID 449749); format: functional
# T6 sequence (P9WMR3 whole entry): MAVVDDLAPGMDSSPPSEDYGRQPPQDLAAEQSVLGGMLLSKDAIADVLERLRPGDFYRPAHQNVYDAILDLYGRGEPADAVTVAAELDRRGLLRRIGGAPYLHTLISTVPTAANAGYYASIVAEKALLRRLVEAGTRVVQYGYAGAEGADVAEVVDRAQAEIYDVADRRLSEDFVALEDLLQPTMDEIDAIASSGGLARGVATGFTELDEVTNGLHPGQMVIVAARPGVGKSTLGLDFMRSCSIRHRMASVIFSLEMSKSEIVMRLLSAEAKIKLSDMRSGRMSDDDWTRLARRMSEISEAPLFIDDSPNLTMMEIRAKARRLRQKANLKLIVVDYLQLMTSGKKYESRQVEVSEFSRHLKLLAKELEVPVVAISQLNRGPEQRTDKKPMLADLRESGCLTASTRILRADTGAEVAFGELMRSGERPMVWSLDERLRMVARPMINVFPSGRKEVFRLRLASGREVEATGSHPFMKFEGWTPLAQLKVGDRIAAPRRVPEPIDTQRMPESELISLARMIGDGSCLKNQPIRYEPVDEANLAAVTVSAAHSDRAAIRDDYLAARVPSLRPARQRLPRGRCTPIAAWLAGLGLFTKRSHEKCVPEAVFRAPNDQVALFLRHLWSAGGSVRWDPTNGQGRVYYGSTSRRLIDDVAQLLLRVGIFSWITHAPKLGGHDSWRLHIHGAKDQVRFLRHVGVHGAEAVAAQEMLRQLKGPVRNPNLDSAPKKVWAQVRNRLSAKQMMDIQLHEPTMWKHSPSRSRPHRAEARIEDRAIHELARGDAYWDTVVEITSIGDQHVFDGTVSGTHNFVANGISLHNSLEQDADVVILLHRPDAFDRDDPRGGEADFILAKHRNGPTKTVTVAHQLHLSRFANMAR
# [12] = molecular target: Luciferin 4-monooxygenase (Photinus pyralis, UniProt P08659); test: firefly luciferase enzyme inhibitors, dose response, biochemical, luminescence (AID 1891)
# Luciferin 4-monooxygenase, sequence (P08659 whole entry): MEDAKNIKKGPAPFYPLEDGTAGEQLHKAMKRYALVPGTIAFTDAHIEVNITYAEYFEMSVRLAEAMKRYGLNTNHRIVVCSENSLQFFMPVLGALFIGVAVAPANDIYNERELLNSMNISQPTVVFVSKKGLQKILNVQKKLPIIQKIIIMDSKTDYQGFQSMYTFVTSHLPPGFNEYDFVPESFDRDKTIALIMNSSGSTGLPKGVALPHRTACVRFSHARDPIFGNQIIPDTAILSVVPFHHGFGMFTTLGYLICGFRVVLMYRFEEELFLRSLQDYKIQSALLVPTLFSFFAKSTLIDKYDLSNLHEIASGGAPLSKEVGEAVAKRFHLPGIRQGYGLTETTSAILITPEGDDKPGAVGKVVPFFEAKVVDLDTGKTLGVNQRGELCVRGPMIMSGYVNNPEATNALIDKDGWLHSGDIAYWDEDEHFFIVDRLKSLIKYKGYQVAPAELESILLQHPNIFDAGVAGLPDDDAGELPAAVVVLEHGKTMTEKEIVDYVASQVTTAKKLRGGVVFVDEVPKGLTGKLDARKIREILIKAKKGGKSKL
# A-375 [13] = test: A375 melanoma cell viability reduction, dose response, counter-screen for MITF modulator project, cherry-pick samples, set 2 (AID 540335); format: functional, cell-based; conditions: Homo sapiens
# [14] = molecular target: T7, Sphingosine 1-phosphate receptor 4 (Homo sapiens, UniProt O95977); test: Fluorescence dose response cell-based high throughput screening assay for antagonists of the Sphingosine 1-Phosphate Receptor 4 (S1P4). [Related pubchem assays: 1524 (Confirmation in triplicates.), 1510 (Primary screen.)]; format: functional
# T7 sequence (O95977 whole entry): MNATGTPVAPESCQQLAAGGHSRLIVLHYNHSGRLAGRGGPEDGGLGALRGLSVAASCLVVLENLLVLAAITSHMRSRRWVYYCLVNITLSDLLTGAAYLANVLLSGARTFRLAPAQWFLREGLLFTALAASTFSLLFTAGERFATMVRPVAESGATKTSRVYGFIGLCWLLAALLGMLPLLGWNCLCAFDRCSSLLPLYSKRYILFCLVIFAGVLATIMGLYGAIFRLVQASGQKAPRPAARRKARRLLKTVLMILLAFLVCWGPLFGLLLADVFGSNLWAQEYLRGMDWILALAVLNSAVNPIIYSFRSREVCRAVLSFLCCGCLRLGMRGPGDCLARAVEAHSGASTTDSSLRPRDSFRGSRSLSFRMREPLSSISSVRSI
# [15] = cytotoxicity in HPDE-C7 cells, cell-based, fluorescence, HTS (AID 430); format: functional; conditions: Homo sapiens
# [16] = cytotoxicity in KRAS-transformed pancreatic duct cells, primary screen, cell-based, fluorescence, HTS (AID 431); format: functional; conditions: Homo sapiens;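 further: cell line used: HPDE-C7K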
# Cytochrome P450 2C19 = Cytochrome P450 2C19 (Homo sapiens, UniProt P33261); test: qHTS Assay for Inhibitors and Substrates of Cytochrome P450 2C19. [Related pubchem assays: 410 ]; format: ADME; conditions: read-out: Potency
# Cytochrome P450 2C19, sequence (P33261 whole entry): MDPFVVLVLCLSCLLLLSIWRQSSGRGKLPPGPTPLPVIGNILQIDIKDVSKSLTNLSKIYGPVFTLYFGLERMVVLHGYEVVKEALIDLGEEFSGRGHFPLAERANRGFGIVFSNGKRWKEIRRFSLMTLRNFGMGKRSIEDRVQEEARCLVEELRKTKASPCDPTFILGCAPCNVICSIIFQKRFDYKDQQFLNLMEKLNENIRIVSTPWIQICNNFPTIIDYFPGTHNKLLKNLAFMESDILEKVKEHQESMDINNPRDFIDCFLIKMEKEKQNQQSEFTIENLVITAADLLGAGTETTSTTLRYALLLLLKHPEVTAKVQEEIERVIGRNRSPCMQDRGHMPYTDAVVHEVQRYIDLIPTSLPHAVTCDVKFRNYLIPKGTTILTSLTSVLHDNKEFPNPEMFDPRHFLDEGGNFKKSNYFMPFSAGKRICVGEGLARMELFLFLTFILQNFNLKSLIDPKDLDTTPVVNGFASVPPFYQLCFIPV
# Muscarinic acetylcholine receptor M1, sequence (P08482 whole entry): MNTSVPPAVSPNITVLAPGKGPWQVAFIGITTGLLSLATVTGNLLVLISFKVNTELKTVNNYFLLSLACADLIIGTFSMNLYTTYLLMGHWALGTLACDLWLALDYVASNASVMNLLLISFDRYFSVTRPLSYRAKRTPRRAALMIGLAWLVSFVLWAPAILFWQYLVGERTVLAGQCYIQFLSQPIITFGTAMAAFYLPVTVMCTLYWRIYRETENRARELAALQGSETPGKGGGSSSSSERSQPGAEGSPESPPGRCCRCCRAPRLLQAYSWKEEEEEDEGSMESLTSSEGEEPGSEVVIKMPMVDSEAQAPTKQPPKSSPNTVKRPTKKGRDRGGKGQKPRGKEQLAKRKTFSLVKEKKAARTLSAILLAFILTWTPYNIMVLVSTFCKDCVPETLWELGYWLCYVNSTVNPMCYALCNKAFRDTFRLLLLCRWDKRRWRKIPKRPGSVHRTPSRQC
smiles,measurement,setting,value
Cn1cc(-c2cc(F)c(CN3C(=O)C(=O)c4ccccc43)c(F)c2)cn1,EC50,[1],0.885 µM (active)
CC1CCN(S(=O)(=O)c2ccc(C(C)C)cc2)CC1,EC50,[2],> 53 µM (inactive)
same,EC50,Mucolipin-3 [3],1.33 µM (active)
same,EC50,Ion channel NompC [4],> 29.9 µM (not active)
same,EC50,Ion channel NompC [5],> 29.9 µM (not active)
same,EC50,Mucolipin-3 [6],1.12 µM (active)
CN1c2ccccc2Sc2cc(Br)ccc21,IC50,NADPH oxidase 1,> 50 µM (not active)
CS(=O)(=O)c1ncc(Cl)c(C(=O)Nc2ccc3ccccc3c2)n1,IC50,Beta Lactamase,7.13 µM (active)
same,EC50,[7],3.6 µM (active)
same,IC50,CHO,1.95 µM (active)
same,EC50,[8],< 30 µM (active)
same,IC50,[9],> 5.53 µM (not active)
same,AC50,A-375 [10],> 35 µM (active)
same,EC50,Protein RecA,4.84 µM (active)
same,AC50,Paired box protein Pax-8,7.81 µM (active)
same,AC50,[11],2.49 µM (active)
same,EC50,[12],> 112 µM (not active)
same,AC50,A-375 [13],> 35 µM (active)
same,IC50,[14],2.07 µM (active)
Cc1nc2sccn2c(=O)c1CCN1CCC(=C(c2ccccc2)c2ccc(F)cc2)CC1,EC50,[15],18.3 µM (active)
same,EC50,[16],17.4 µM (active)
same,AC50,Cytochrome P450 2C19,15.8 µM (inconclusive)
